The values below are quoted from earlier work in patent publication US8586580B2, “2,7-substituted thieno[3,2-d] pyrimidine compounds as protein kinase inhibitors” (Korea Institute of Science and Technology, priority 2009, dated 2013).

Molecules are shown by their SMILES.

The test system of this series is PC-3, BT-474, LoVo, NCI-H460, U-87 MG and BxPC-3 human tumor xenografts. To be noted: in vivo.

With `CN(c1ncccc1CNc1nc(Nc2ccc3c(c2)CC(=O)N3)ncc1C(F)(F)F)S(C)(=O)=O` [PF-562271], the toxicity entry is reported as “No special toxicity has been observed”.
